Test results taken from patent US10401295B2, “Composition and method for monitoring lipid” (Memorial Sloan-Kettering Cancer Center, priority 2014, dated 2019).

Assays:
HeLa cells [1] = assay: hyperspectral imaging of CNOR emission in live HeLa cells; type: cell-based; conditions: for effect on blue-shifting of CNOR emission: HeLa cells, relative to control
Protocol: Cell Lines and Cell Culture Procedures: HeLa CCL-2 cells (ATCC, Manassas, Va., US) were grown under standard incubation conditions at 37° C. and 5% CO2 in sterile-filtered DMEM with 10% heat-inactivated FBS, 2.5% HEPES, 1% Glutamine, and 1% Penicillin/Streptomycin (all Gibco). For studies performed with homozygous mutant NPC, compound mutant heterozygote NPC, or wild-type fibroblasts, the cell lines GM18453, GM03123 or GM05659 (Coriell, Camden, N.J., US), respectively, were cultured in MEM with 10% FBS, 2.5% HEPES, and 1% Glutamine. Cells were plated on glass-bottom petri dishes, or lysine-covered glass dishes (MatTek) for fibroblasts. Unpurified SWCNT were incubated at 1 mg/L and separated SWCNT were incubated at 0.25 mg/L in media with cells for 30 minutes at 37° C. Depending on the experiment, cells were imaged immediately, or trypsinized (Gibco) and re-plated on a fresh glass-bottom petri dish followed by hyperspectral imaging. Pharmacological treatments on HeLa cells were performed with Nocodazole (Sigma, 10 μg/mL added after SWCNT incubation) or U18666A (Sigma, 3 μg/mL added 6 hours prior to SWCNT incubation). Fibroblast cells were incubated with hydroxypropyl-β-cyclodextrin (Sigma, 100 μM) 6 hours prior to SWCNT incubation. Cells were incubated for 30 minutes with 0.25 mg/L of the SWCNTs before rinsing and replacing with fresh media. Hyperspectral imaging was conducted immediately afterwards and 24 hours later. A DNA-encapsulated nanotube complex, undergoing a continuous solvatochromic shifting response, spatially and temporally tracked endosomal maturation in live HeLa cells. Separated (8,6) nanotubes encapsulated by an ss(GT)6 oligonucleotide, with a median length of 236 nm, were incubated with HeLa cells at 0.25 mg/L for 30 minutes before rinsing and replacing with fresh media. The wavelength distribution of the nanotube complex in endosomes, measured immediately after uptake, was centered at 1200.7±0.4 nm, near the bulk value observed in water. In lysosomes, after 6 hours post-incubation, the wavelength distribution broadened before blue-shifting to 1194.3±0.7 nm at the 24-hour timepoint (FIG. 2, panel A). A small red-shifted nanotube population, with a mean wavelength of 1205 nm, appeared at the 6-hour time point but disappeared by 24 hours. The relative mean wavelength of each emissive region of interest (ROI) was laid over a transmitted light image of the cells, resulting in spatial visualization of the spectral distribution (FIG. 2, panel B). […] The interaction of GT6-(8,6) nanotubes with RAW 264.7 macrophages was characterized, by incubating 2 pM of nanotubes in cell media for 30 minutes at 37° C. Under these conditions, the majority of cells efficiently took up nanotubes via energy-dependent mechanisms.

HeLa cells [2] = assay: filipin staining of unesterified cholesterol in HeLa cells; type: cell-based; conditions: fixed HeLa cells, versus control
Protocol: Filipin staining was conducted by fixing cells with 1.5% paraformaldehyde in PBS for 20 minutes. Cells were then labeled with 50 μg/mL filipin for 45 minutes. After washing, filipin images were acquired using 350/50 nm excitation and 460/50 mm emission filters with a 400 nm dichroic long-pass filter (Olympus).

RAW 264.7 macrophages = assay: CNOR emission in RAW 264.7 macrophages (lysosomal lipid accumulation); type: cell-based; conditions: for blue shift compared with control macrophages: DMEM+10% FBS, U18666A, 10 uM Lalistat
Protocol: A DNA-encapsulated nanotube complex, undergoing a continuous solvatochromic shifting response, spatially and temporally tracked endosomal maturation in live HeLa cells. Separated (8,6) nanotubes encapsulated by an ss(GT)6 oligonucleotide, with a median length of 236 nm, were incubated with HeLa cells at 0.25 mg/L for 30 minutes before rinsing and replacing with fresh media. The wavelength distribution of the nanotube complex in endosomes, measured immediately after uptake, was centered at 1200.7±0.4 nm, near the bulk value observed in water. In lysosomes, after 6 hours post-incubation, the wavelength distribution broadened before blue-shifting to 1194.3±0.7 nm at the 24-hour timepoint (FIG. 2, panel A). A small red-shifted nanotube population, with a mean wavelength of 1205 nm, appeared at the 6-hour time point but disappeared by 24 hours. The relative mean wavelength of each emissive region of interest (ROI) was laid over a transmitted light image of the cells, resulting in spatial visualization of the spectral distribution (FIG. 2, panel B). […] The interaction of GT6-(8,6) nanotubes with RAW 264.7 macrophages was characterized, by incubating 2 pM of nanotubes in cell media for 30 minutes at 37° C. Under these conditions, the majority of cells efficiently took up nanotubes via energy-dependent mechanisms.
RAW macrophages were incubated in lipoprotein depleted serum (LPDS) for 24 hours. Incubation in these conditions reduces the lipid content of the lysosomes and increases the number of surface receptors for acetylated LDL (Ac-LDL) on the cell surface. To induce lipid accumulation in the lysosomes, Ac-LDL and U18666A (a cholesterol transport inhibitor) were introduced to cells incubating in the lipoprotein depleted serum. […]
The reporter detected Wolman's disease, a lysosomal storage disorder characterized by the accumulation of esterified cholesterol in the lysosomes due to a non-functioning lysosomal acid lipase (LAL). […]

[3] = system: NPC fibroblasts (homozygous mutation of the NPC1 gene); assay: CNOR emission in homozygous NPC patient fibroblasts; type: cell-based, human
Protocol: (§1) Cell Lines and Cell Culture Procedures: HeLa CCL-2 cells (ATCC, Manassas, Va., US) were grown under standard incubation conditions at 37° C. and 5% CO2 in sterile-filtered DMEM with 10% heat-inactivated FBS, 2.5% HEPES, 1% Glutamine, and 1% Penicillin/Streptomycin (all Gibco). For studies performed with homozygous mutant NPC, compound mutant heterozygote NPC, or wild-type fibroblasts, the cell lines GM18453, GM03123 or GM05659 (Coriell, Camden, N.J., US), respectively, were cultured in MEM with 10% FBS, 2.5% HEPES, and 1% Glutamine. Cells were plated on glass-bottom petri dishes, or lysine-covered glass dishes (MatTek) for fibroblasts. Unpurified SWCNT were incubated at 1 mg/L and separated SWCNT were incubated at 0.25 mg/L in media with cells for 30 minutes at 37° C. Depending on the experiment, cells were imaged immediately, or trypsinized (Gibco) and re-plated on a fresh glass-bottom petri dish followed by hyperspectral imaging.
Pharmacological treatments on HeLa cells were performed with Nocodazole (Sigma, 10 μg/mL added after SWCNT incubation) or U18666A (Sigma, 3 μg/mL added 6 hours prior to SWCNT incubation). […]
Niemann Pick Type-C(NPC) is a lysosomal storage disorder characterized by massive accumulation of unesterified cholesterol in the lysosomes of patient fibroblasts. […]

[4] = system: NPC1 fibroblasts (compound heterozygous mutations of the NPC1 gene); assay: reporter emission in compound heterozygous NPC1 patient fibroblasts; type: cell-based, human
Protocol: as §1
In a similar procedure to the experiment with homozygous NPC cells, fibroblasts with the compound heterozygous mutation of the NPC1 gene were plated on a poly-d-lysine-coated glass-bottomed petri-dish and imaged at different time points after an initial 30 minute incubation with the SWCNTs. Histograms of the wavelength distribution profile of the SWCNTs were obtained. […]

## COC(=O)Nc1nc2ccc(C(=O)c3cccs3)cc2[nH]1 [nocodazole]
HeLa cells [1]
  effect on blue-shifting of CNOR emission: prevented the blue-shifting
HeLa cells [1]; nocodazole 10 μg/mL, up to 24 hours after internalization, control 1194.28±0.73
  mean CNOR emission: 1200.07±1.4 nm

## Cl.N [NH4Cl]
HeLa cells [1]; 50 mM added 6 hours after incubation with the CNOR
  effect on CNOR emission populations: blue-shifted population remained unaffected while the red-shifted population was depleted

## CCN(CC)CCO[C@H]1CC[C@@]2(C)C(=CC[C@@H]3[C@@H]2CC[C@]2(C)C(=O)CC[C@@H]32)C1 [U18666A]
HeLa cells [2]
  intensity of filipin in the cell interior: increased greatly
HeLa cells [1]; 3 μg/mL for six hours before incubation with the CNOR, at 24 hours
  further increase in blue shift than in untreated control cells: 3.8±0.7 nm
HeLa cells [1]
  effect on blue-shifting of CNOR emission: enhanced
RAW 264.7 macrophages
  blue shift compared with control macrophages: ~8 nm
RAW 264.7 macrophages; RAW 264.7 macrophages
  CNOR blue-shift in drug-treated cells relative to drug-free control: 11.1±1.1 nm

## Lalistat
RAW 264.7 macrophages
  blue shift compared with control macrophages: ~8 nm

## hydroxypropyl-β-cyclodextrin [HPβCD]
[3]; HPβCD for additional 24 hours, after imaging at 24 hours
  effect on CNOR blue-shift in NPC cells: reversal of the CNOR blue-shift
[3]; pre-treatment before CNOR incubation
  effect of pre-treatment on CNOR fluorescence shifting in diseased cells: prevented CNOR fluorescence from shifting
[4]; 100 uM for 24 hours, 24 hours after nanotube addition
  red-shift of nanotube emission: approximately 4 nm
[4]; pre-treated 24 hours prior to nanotube addition
  emission in pretreated NPC1 cells versus WT fibroblasts: identical emission values
